The results in this text go back to article PMC6511062, “Preclinical candidate for the treatment of visceral leishmaniasis that acts through proteasome inhibition” (Proceedings of the National Academy of Sciences of the …, 2019).

Where “and” joins values, the source holds several entries; their conditions need not be identical. Equal values may be shown once. A value given as a limit tells only on which side of the number the result lay.

Data set [1] relates to L. donovani promastigotes. Description: Cell cycle (FACS) analysis, L. donovani promastigotes. Format: cell-based, Leishmania donovani. As to conditions: 5x EC50. The protocol:
consisted of 1 µL (40 ng) of cDNA, 10 µL of Brilliant III Ultra-Fast QPCR Master Mix (Agilent Technologies), 1 µL (500 nM) each of the forward and reverse primers, and 0.3 µl (30 nM) of reference dye and nuclease-free PCR grade-treated water. PCR was performed using an Agilent Mx3005P machine with the following cycling conditions:
95°C for 3 min; 40 cycles of 95°C for 20 s; then 60 °C for 20 s. The reference gene TERT (Tb927.11.10190, telomerase reverse transcriptase) was used to provide a baseline of transcription levels for normalization of the data. Relative quantification in the tetracycline-induced cell lines were normalized to the un-induced cell line using the […]
h. Morphological analysis […]
Cultures of bloodstream T. brucei and L. donovani promastigotes at starting cell densities of 5 x 105 were incubated with concentrations of compound 7 equivalent to 5x their respective EC50 values. […] After washing, cell densities were adjusted to 5 × 10^5 cells mL, re-suspended in 500 µL of PBS containing 50 µg/mL propidium iodide, 50 µg/mL RNase and 0.1% Triton X-100, incubated at room temperature for 20 min in the dark and analysed using FACSort analytical flow cytometer using Cellquest software (BD Biosciences). j. […]

The next data set relates to Host Cell. Description: Host cell toxicity in the clinical strain panel. Format: cell-based. An excerpt:
page 46: Supplementary Tables Table S1. […] MHOM/IN/2002/BHU1 0.6 >50 […] Results from one or two (both values shown) biological replicates. Table S2. […] Data represents % of reduction of parasite burden in drug- treated and vehicle control animals calculated from mean LDU data.

A further data set concerns L. donovani (LV9). In words: Mouse model of VL (in vivo efficacy in female Balb/C mice). More on the design: species or system Leishmania donovani. The protocol: Infected mice were dosed at 3, 10, or 25 mg/kg orally twice a day for 10 consecutive days. Two days after the termination of treatment, mice were euthanized, and the parasite burdens in their livers were determined.
Peripheral blood samples were obtained at 5, 15, 30 min, 1, 2, 4, 6 ,8 and 24 h after intravenous administration and 15, 30, 45 min,1, 2, 4, 6, 8 and 24 h after oral administration. Blood was 1/2 diluted with milliQ water and immediately frozen on dry ice until analysis. Quantification was performed by means of LC-MS/MS (API4000), with a lower limit of quantification of 1 ng/mL. […]
Data analysis and calculation of pharmacokinetic parameters was performed using Phoenix, WinNonLin Version 6.3. […]
For both intravenous and oral administration, the systemic exposures were determined by calculating the area under the blood concentration time curve (AUC) from the start of dosing to the last observed quantifiable concentration (AUC0-t) by using the linear up-log down trapezoidal rule. The slope of the terminal elimination phase was estimated by linear regression of the terminal data points (minimum 3 points) from a natural log concentration versus time plot of the data. The half-life (t1/2) of the terminal elimination phase was calculated as t1/2 = 0.693/λ.
7. In vivo efficacy in female Balb/C mice
To establish infection in mice, sodium stibogluconate-sensitive L. donovani (LV9, WHO designation: MHOM/ET/67/HU3) amastigotes were isolated from the spleen of a heavily infected donor hamster (Janvier, France)7. An inoculum containing 1.0 x 10^8 amastigotes/mL in Dulbecco’s modified eagles medium (high glucose) was prepared […]
and female BalbC mice (Harlan, UK) then infected intravenously via the tail vein with a 0.2 mL bolus (equivalent to ~2.0 x 10^7 amastigotes). Infection was left to establish for […]
daily orally as a suspension in 0.5% hydroxypropylmethylcellulose, 0.4% tween 80 and 0.5% benzyl alcohol. With twice daily regimens, the second daily dose was administered approximately 8 h following the first dose. Dose regimens evaluated were:
1. 50 mg/kg twice daily for 5 days
2. 25 mg/kg, 10 mg/kg and 3 mg/kg twice daily for 10 days
3. 25 mg/kg once daily for 10 days
Miltefosine, as the only oral treatment for visceral leishmaniasis, was used as a […]

[2] abbreviates: 10-d treatment orally twice a day.

Turning to `O=C(Nc1ccc(F)c(-c2cn3nc(-c4ccccc4)cnc3n2)c1)N1CCCC1` [Compound 7], the “effect on cell cycle progression” value in data set [1] is “accumulation of cells in G2/M”.

On to `O=C(Nc1ccc(F)c(-c2ccn3c(N4CCOCC4)cnc3n2)c1)N1CCCC1` [Compound 8], for which the EC50 in the data set with Host Cell (strain MHOM/ET/67/HU3 (LV9)), in the data set with Host Cell (strain MHOM/IN/80/DD8), in the data set with Host Cell (strain MHOM/IN/2002/BHU1), with Host Cell (strain MHOM/MA/67/ITMAP263) and in the data set with Host Cell (strain SUKA001) was over 50 µM each time. In addition, the “Reduction in parasite burden (compared to the vehicle control group)” value with L. donovani (LV9) (3 mg/kg b.i.d. (10 days PO)) was 18.4%; with L. donovani (LV9) (10 mg/kg b.i.d. (10 days PO)), 56.9%; in the data set with L. donovani (LV9) (25 mg/kg b.i.d. (10 days PO)), 98.1% and > 95%; with L. donovani (LV9) (25 mg/kg u.i.d. (10 days PO)), 8.8%. For the same compound, in the data set with L. donovani (LV9) (25 mg/kg twice a day for 10 days), the “exposure giving >95% parasite burden reduction” value is 27 μg/h per mililiter. Besides, the ED90 in the data set on L. donovani (LV9) (setting [2]) is 16 mg/kg. In addition, the ED99 with L. donovani (LV9) (setting [2]) is 30 mg/kg. Besides, in the data set with L. donovani (LV9) (Leishmania donovani, po, 240 h, 10-d treatment orally twice a day), the ED50 (as a rule, the dose that gives a 50% effect, or the effect in half of the subjects) was 8.9 mg/kg.
